{"source": "patent US20260027214A1", "about": "“PHARMACEUTICAL COMPOSITION FOR TREATING OR PREVENTING INFLAMMATION CAUSED BY ACANTHAMOEBA” (priority 2022, published 2026)", "key": {"Acanthamoeba polyphaga [1]": {"system": "Acanthamoeba polyphaga", "test": "Cell death test: trypan blue staining of adhered Acanthamoeba", "assay_type": "cell-based", "conditions": "for Acanthamoeba inhibition effects (antiprotozoal effects): in words, compared with complex at 100 μg/mL and 1000 μg/mL; for Acanthamoeba mortality rate: 60 min immersion, 1×10^5 Acanthamoeba/mL", "procedure": "(§1) An Acanthamoeba solution containing 1×10^5 Acanthamoeba per mL of solution was prepared by dispersing Acanthamoeba (Acanthamoeba polyphaga, obtained from American Type Culture Collection (ATCC), 30872™) in phosphate-buffered saline as solvent.\n(§2) The polypropylene test pieces used in the adhesion test described below were polypropylene from Johoku Co., Ltd., product number: PP_A3, cut to dimensions of 15 mm length×15 mm width×0.25 mm thickness from original dimensions of 320 mm length×440 mm width×0.25 mm thickness for each experiment.\n(§3) To verify the anti-adhesive properties and antiprotozoal activity of the lysozyme-chitosan complex (LYZOX (registered trademark)), adhesion tests and cell death tests were conducted.\n(§4) Specifically, the above-mentioned Acanthamoeba solution was added to the above-mentioned lysozyme-chitosan complex (LYZOX (registered trademark)) solution to prepare mixed solutions containing 0.1 μg, 1 μg, 10 μg, 100 μg, and 1000 μg of lysozyme-chitosan complex per 1 mL of mixed solution. Separately, a control solution with 0 μg/mL concentration containing no lysozyme-chitosan complex was prepared. The same sterilized water used in preparing the lysozyme-chitosan complex was used as dilution liquid for concentration adjustment. All six solutions contained 1×10^5 Acanthamoeba per 1 mL of solution.\n(§5) The above-mentioned polypropylene test pieces were immersed in the prepared mixed solutions and left standing; after 60 minutes of immersion, the test pieces were removed from the mixed solutions, washed with phosphate-buffered saline (PBS, obtained from FUJIFILM Wako Pure Chemical Corporation, product number: 166-23555), and dried. The surface of the obtained test pieces was observed under a biological microscope (obtained from Nikon, product number: ECLIPSE E-200), and Acanthamoeba adhered within a 5×5 mm observation area on the test piece surface were counted. Subsequently, trypan blue was applied to the observation area, staining dead Acanthamoeba, and the number of dead Acanthamoeba was counted.\n(§6) Acanthamoeba were counted and the total number of adhered Acanthamoeba, number of dead Acanthamoeba, and Acanthamoeba mortality rate were measured in the same manner as Experimental Example 1, except that the mixture solution of lysozyme and chitosan (Table 2), lysozyme alone (Table 3), and chitosan alone (Table 4) described above were used instead of the lysozyme-chitosan complex (LYZOX (registered trademark)) solution of Experimental Example 1."}, "Acanthamoeba polyphaga [2]": {"system": "Acanthamoeba polyphaga", "test": "Adhesion test: Acanthamoeba adhered to polypropylene test pieces after 60 min immersion", "assay_type": "cell-based", "procedure": "as §1, §2, §3, §4, §5, §6"}}}
{"substance": "Lysozyme: egg white lysozyme with molecular weight of approximately 14300 (Biocon (Japan) Ltd.)", "values": [{"measurement": "Acanthamoeba inhibition effects (antiprotozoal effects)", "setting": "Acanthamoeba polyphaga [1]", "value": "incomplete"}, {"measurement": "Total number of adhered Acanthamoeba", "setting": "Acanthamoeba polyphaga [2]; 0.05 μg/mL, 1×10^5 Acanthamoeba/mL", "value": 119, "unit": "count/mm^2"}, {"measurement": "Total number of adhered Acanthamoeba", "setting": "Acanthamoeba polyphaga [2]; 0.5 μg/mL, 1×10^5 Acanthamoeba/mL", "value": 94.2, "unit": "count/mm^2"}, {"measurement": "Total number of adhered Acanthamoeba", "setting": "Acanthamoeba polyphaga [2]; 5 μg/mL, 1×10^5 Acanthamoeba/mL", "value": 87.2, "unit": "count/mm^2"}, {"measurement": "Total number of adhered Acanthamoeba", "setting": "Acanthamoeba polyphaga [2]; 50 μg/mL, 1×10^5 Acanthamoeba/mL", "value": 67.8, "unit": "count/mm^2"}, {"measurement": "Total number of adhered Acanthamoeba", "setting": "Acanthamoeba polyphaga [2]; 500 μg/mL, 1×10^5 Acanthamoeba/mL", "value": 42.1, "unit": "count/mm^2"}]}
{"substance": "poly-β1→4-glucosamine [Chitosan]", "values": [{"measurement": "Acanthamoeba mortality rate", "setting": "Acanthamoeba polyphaga [1]; 0.05 μg/mL", "value": 3.5, "unit": "%"}, {"measurement": "Acanthamoeba mortality rate", "setting": "Acanthamoeba polyphaga [1]; 0.5 μg/mL", "value": 3.8, "unit": "%"}, {"measurement": "Acanthamoeba mortality rate", "setting": "Acanthamoeba polyphaga [1]; 5 μg/mL", "value": 3.9, "unit": "%"}, {"measurement": "Acanthamoeba mortality rate", "setting": "Acanthamoeba polyphaga [1]; 50 μg/mL", "value": 7.9, "unit": "%"}, {"measurement": "Acanthamoeba mortality rate", "setting": "Acanthamoeba polyphaga [1]; 500 μg/mL", "value": 37.4, "unit": "%"}, {"measurement": "Acanthamoeba inhibition effects (antiprotozoal effects)", "setting": "Acanthamoeba polyphaga [1]", "value": "incomplete"}, {"measurement": "Total number of adhered Acanthamoeba", "setting": "Acanthamoeba polyphaga [2]; 0.05 μg/mL, 1×10^5 Acanthamoeba/mL (Table 4)", "value": 108, "unit": "count/mm2"}, {"measurement": "Total number of adhered Acanthamoeba", "setting": "Acanthamoeba polyphaga [2]; 0.5 μg/mL, 1×10^5 Acanthamoeba/mL (Table 4)", "value": 89.2, "unit": "count/mm2"}, {"measurement": "Total number of adhered Acanthamoeba", "setting": "Acanthamoeba polyphaga [2]; 5 μg/mL, 1×10^5 Acanthamoeba/mL (Table 4)", "value": 82.1, "unit": "count/mm2"}, {"measurement": "Total number of adhered Acanthamoeba", "setting": "Acanthamoeba polyphaga [2]; 50 μg/mL, 1×10^5 Acanthamoeba/mL (Table 4)", "value": 65.3, "unit": "count/mm2"}, {"measurement": "Total number of adhered Acanthamoeba", "setting": "Acanthamoeba polyphaga [2]; 500 μg/mL, 1×10^5 Acanthamoeba/mL (Table 4)", "value": 49.7, "unit": "count/mm2"}]}
